Active and inactive are the calls of the source. The rule behind the calls is not given here.
Columns and labels:
[1] = tested on: Mus musculus; assay: Antihyperlipidemic activity in Triton WR-1339-induced hyperlipidemic mouse model assessed as decrease in serum MDA level at 13 mg/kg, po for 7 days and co-treated with Triton WR-1339 on day 6; type: functional, organism-based
[2] = tested on: Mus musculus; assay: Antihyperlipidemic activity in Triton WR-1339-induced hyperlipidemic mouse model assessed as decrease in serum triglyceride level at 13 mg/kg, po for 7 days and co-treated with Triton WR-1339 on day 6; type: functional, organism-based
[3] = tested on: Mus musculus; assay: In vivo anti-inflammatory activity in high fat diet-induced hyperlipidemic mouse model assessed as reduction in TNF-alpha level at 13 mg/kg, po administered for last 30 days during 60 days of high fat diet feeding relative to control; type: functional
[4] = tested on: Mus musculus; assay: Antihyperlipidemic activity in high fat diet-induced hyperlipidemic mouse model assessed as increase in HDL level at 13 mg/kg, po administered for last 30 days during 60 days of high fat diet feeding relative to control; type: functional
[5] = tested on: Mus musculus; assay: Antihyperlipidemic activity in high fat diet-induced hyperlipidemic mouse model assessed as LDL level at 13 mg/kg, po administered for last 30 days during 60 days of high fat diet feeding relative to control; type: functional
[6] = organism: Mus musculus; assay: animal or person; type: functional; details: po
Description: Antihyperlipidemic activity in high fat diet-induced hyperlipidemic mouse model assessed as reduction in atherosclerosis index at 13 mg/kg, po administered for last 30 days during 60 days of high fat diet feeding relative to control

[7] = tested on: Mus musculus; assay: Hepatoprotective activity in high fat diet-induced hyperlipidemic mouse model assessed as reduction in AST level at 13 mg/kg, po administered for last 30 days during 60 days of high fat diet feeding relative to control; type: functional
[8] = tested on: Mus musculus; assay: Antioxidant activity in high fat diet-induced hyperlipidemic mouse model assessed as increase in SOD level at 13 mg/kg, po administered for last 30 days during 60 days of high fat diet feeding relative to control; type: functional
[9] = tested on: Mus musculus; assay: Antihyperlipidemic activity in high fat diet-induced hyperlipidemic mouse model assessed as reduction in serum triglyceride level at 13 mg/kg, po administered for last 30 days during 60 days of high fat diet feeding relative to control; type: functional
[10] = tested on: Mus musculus; assay: Hepatoprotective activity in high fat diet-induced hyperlipidemic mouse model assessed as inhibition of lipid accumulation at 13 mg/kg, po administered for last 30 days during 60 days of high fat diet feeding by oil-red O staining-based microscopic analysis; type: functional, organism-based
[11] = tested on: Mus musculus; assay: Antihyperlipidemic activity in high fat diet-induced hyperlipidemic mouse model assessed as reduction in total cholesterol level at 13 mg/kg, po administered for last 30 days during 60 days of high fat diet feeding relative to control; type: functional
[12] = tested on: Mus musculus; assay: Antihyperlipidemic activity in Triton WR-1339-induced hyperlipidemic mouse model assessed as decrease in total cholesterol level at 13 mg/kg, po for 7 days and co-treated with Triton WR-1339 on day 6; type: functional, organism-based
[13] = tested on: Mus musculus; assay: In vivo anti-inflammatory activity in high fat diet-induced hyperlipidemic mouse model assessed as reduction in IL-6 level at 13 mg/kg, po administered for last 30 days during 60 days of high fat diet feeding relative to control; type: functional
[14] = tested on: Mus musculus; assay: Antioxidant activity in high fat diet-induced hyperlipidemic mouse model assessed as increase in GSH-PX level at 13 mg/kg, po administered for last 30 days during 60 days of high fat diet feeding relative to control; type: functional
[15] = tested on: Mus musculus; assay: Hepatoprotective activity in high fat diet-induced hyperlipidemic mouse model assessed as decrease in tissue hemorrhage at 13 mg/kg, po administered for last 30 days during 60 days of high fat diet feeding by H and E staining-based microscopic analysis; type: functional, organism-based
[16] = tested on: Mus musculus; assay: Hepatoprotective activity in high fat diet-induced hyperlipidemic mouse model assessed as reduction in ALT level at 13 mg/kg, po administered for last 30 days during 60 days of high fat diet feeding relative to control; type: functional
[17] = tested on: Mus musculus; assay: Antioxidant activity in high fat diet-induced hyperlipidemic mouse model assessed as reduction in MDA level at 13 mg/kg, po administered for last 30 days during 60 days of high fat diet feeding relative to control; type: functional
[18] = tested on: Mus musculus; assay: Hepatoprotective activity in high fat diet-induced hyperlipidemic mouse model assessed as decrease in inflammatory cell infiltration at 13 mg/kg, po administered for last 30 days during 60 days of high fat diet feeding by H and E staining-based microscopic analysis; type: functional, organism-based

SMILES | Activity [1] | Activity [2] | Activity [12] | further results
CCOC(=O)C(C)(C)Oc1ccc(-c2cc(=S)ss2)cc1 | Active | Active |  | 
CCOC(=O)CCCCCOc1ccc(-c2cc(=S)ss2)cc1 | Active | Active | Active | inhibition in vivo at 13 mg/kg [3]: 31.8%; Activity [4]: 21.4%; inhibition in vivo at 13 mg/kg [5]: 30.7%; inhibition in vivo at 13 mg/kg [6]: 40.1%; inhibition in vivo at 13 mg/kg [7]: 31.5 to 39%; Activity [8]: 10.8%; inhibition in vivo at 13 mg/kg [9]: 29.4%; Activity [10]: Active; inhibition in vivo at 13 mg/kg [11]: 12.5%; inhibition in vivo at 13 mg/kg [13]: 18.4%; Activity [14]: 19.2%; Activity [15]: Active; inhibition in vivo at 13 mg/kg [16]: 8.2%; inhibition in vivo at 13 mg/kg [17]: 10.1%; Activity [18]: Active
CC(C)OC(=O)C(C)(C)Oc1ccc(C(=O)c2ccc(Cl)cc2)cc1 [FENOFIBRATE] | Active | Active | inactive | Activity [4]: 19.4%; Activity [8]: 10.9%; Activity [14]: 9.9%
CCOC(=O)C(C)Oc1ccc(-c2cc(=S)ss2)cc1 (stereo not given) | Active | Active |  | 
CCOC(=O)C(CC)Oc1ccc(-c2cc(=S)ss2)cc1 (stereo not given) | Active | Active |  | 
CCOC(=O)COc1ccc(-c2cc(=S)ss2)cc1 | Active | Active |  | 
COc1ccc(-c2cc(=S)ss2)cc1 |  | inactive | inactive | 
CCOC(=O)CCCCCCOc1ccc(-c2cc(=S)ss2)cc1 | Active | Active | Active | 
CCOC(=O)CCCCOc1ccc(-c2cc(=S)ss2)cc1 | Active | Active | Active | 

— ChEMBL document CHEMBL4325841, “5-(4-Hydroxyphenyl)-3H-1,2-dithiole-3-thione-based fibrates as potential hypolipidemic and hepatoprotective agents” (2018)
